Article PMC4775225, “Bromodomain inhibition of the transcriptional coactivators CBP/EP300 as a therapeutic strategy to target the IRF4 network in multiple myeloma” (eLife, 2016)

Columns and labels:
[1] = test system: Nalm6; test: Viability, resazurin, 6 days; assay type: cell-based; conditions: Homo sapiens, NALM-6, 144 h, Nalm6, ALL
Procedure: Cells were plated at 5000–10000 cells per well of 96-well plates containing titrations of the compounds as indicated. After incubation, the cells were incubated with 500 μg/ml resazurin (Sigma) in PBS for 2–8 hr, and fluorescence was measured (Ex 530 nm, Em 590 nm). Cell cycle analysis was performed as described previously ([Mertz et al., 2011]). For visualization, DNA content histograms were generated with GraphPad Prism. Dose-response curves were generated by plotting the normalized percent growth, percent sub-G1 and percent increase in G0/G1 at each dose values. GI50 values were determined as the concentration at which viability was 50% of the DMSO value and calculated by a four-parameter non-linear regression model in GraphPad Prism.

[2] = test system: H3K18 and H3K27 acetylation in LP-1 cells; test: Western analysis of global histone acetylation; assay type: cell-based, human; conditions: LP-1, 16 hr
Procedure: Whole cell extracts were prepared by lysis in RIPA buffer + EDTA (Boston Bioproducts, Inc.; Ashland, MA) with protease inhibitor cocktail (Roche Life Sciences; Indianapolis, IN). Extracts were subjected to SDS-PAGE and Western analysis with MYC (Cell Signaling (Danvers, MA) #5605), IRF4 (Cell Signaling #4964 or #4948), GAPDH (Life Technologies AM4300), CBP (Santa Cruz (Dallas, TX) sc-369), EP300 (Santa Cruz sc-584), or β-actin (Life Technologies AM4302) primary antibodies. For histone analysis, extracts were prepared by sulfuric acid extraction of permeablized nuclei, and extracted histones were subjected to SDS-PAGE and Western analysis with H3K18ac (Cell Signaling #9675), H3K27ac (EMD Millipore (Billerica, MA) 07–360), or H4 (Abcam (Cambridge, MA) 31830). Blots were incubated with DyLight conjugated secondary antibodies, imaged and quantified with a Licor fluorescence imager (Licor, Inc.; Lincoln, NE), or with HRP- conjugated secondary antibodies for ECL visualization.

[3] = biological target: T1, CBP bromodomain (amino acids 1082–1197) (Homo sapiens, UniProt Q92793); test: AlphaLISA, acetylated peptide binding to CBP bromodomain
T1 construct: His-Flag-tagged CBP bromodomain (amino acids 1082–1197)
T1 sequence (Q92793 1082-1197): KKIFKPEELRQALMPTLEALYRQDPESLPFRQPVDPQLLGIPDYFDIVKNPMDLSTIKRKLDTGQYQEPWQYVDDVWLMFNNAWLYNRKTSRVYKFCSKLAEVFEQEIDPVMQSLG
Procedure: Compound at varying concentrations were dispensed into 384 well Proxiplates (Perkin Elmer) using Echo technology (Labcyte, Inc.; Sunnyvale, CA). For CBP assays, 0.5 μM His-Flag-tagged CBP bromodomain (amino acids 1082–1197) was incubated with 0.003 μM H4-TetraAc-biotin for 20 min at room temperature in 1x reaction buffer (50 mM HEPES pH 7.5, 1 mM TCEP, 0.069 mM Brij-35, 150 mM NaCl, and 0.1 mg/ml BSA). Streptavidin acceptor beads and nickel donor beads (Perkin Elmer) were added to 15 μg/ml with a Combi Multidrop dispenser. Plates were sealed and incubated at 90 min in the dark at room temperature, and plates were read on an Envision plate reader (Perkin Elmer) according to manufacturer’s instructions. For the BET assays, the protocol was similar except that BET family bromodomains were used at 0.03 μM (BRD4-BD1) and incubated with 0.2 μM H4-TetraAc-biotin for 20 min in reaction buffer (40 mM HEPES pH7.0, 1 mM DTT, 0.069 mM Brij-35, 40 mM NaCl, and 0.1 mg/ml BSA). Streptavidin donor beads and Anti-Flag Acceptor beads (Perkin Elmer) were added to 10 μg/ml, and then plates were sealed and incubated in the dark for 60 min prior to reading on the Envision.

[4] = biological target: T2, CBP bromodomain and histone H3.3 (Homo sapiens, UniProt Q92793); test: NanoBRET, CBP bromodomain/histone H3.3 in HEK293 cells; assay type: cell-based; conditions: 293 cells, CBP bromodomain and histone H3.3; n = 3 technical replicates ± SEM
T2 construct: NanoBRET with the isolated CBP bromodomain and histone H3.3 in 293 cells; host or cells: HEK293
T2 sequence (Q92793 1085-1192 limits assumed): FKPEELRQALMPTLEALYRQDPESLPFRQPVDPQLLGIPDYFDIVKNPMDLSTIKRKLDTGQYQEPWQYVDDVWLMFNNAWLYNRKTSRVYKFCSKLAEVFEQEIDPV
Procedure: NanoBRET was carried out using the NanoBRET Protein:Protein Interaction System (Promega, Inc.; Madison, WI) according to the manufacturer’s instructions. Briefly, HEK293 cells were transiently co-transfected with a vector for histone H3.3-HaloTag and a NanoLuc tagged CBP bromodomain expression construct. Transfected cells were plated in 96 -well plates in the presence or absence of ligand, then treated with dose titrations of indicated compounds. Readings were performed on an Envision Plate Reader (Perkin Elmer, Inc.; Waltham, MA) and BRET readings were calculated by dividing the acceptor emission value (600 nm) by the donor emission value (460/50 nm).

[5] = biological target: CBP-bromodomain/BRD9 ZsGreen fusion protein (Homo sapiens, UniProt Q92793); test: cell-based
CBP-bromodomain/BRD9 ZsGreen fusion protein, sequence (Q92793 1085-1192): as the sequence (Q92793 1085-1192 limits assumed) above
CBP-bromodomain/BRD9 ZsGreen fusion protein, sequence (Q9H8M2 with tags, fused parts or gaps partner): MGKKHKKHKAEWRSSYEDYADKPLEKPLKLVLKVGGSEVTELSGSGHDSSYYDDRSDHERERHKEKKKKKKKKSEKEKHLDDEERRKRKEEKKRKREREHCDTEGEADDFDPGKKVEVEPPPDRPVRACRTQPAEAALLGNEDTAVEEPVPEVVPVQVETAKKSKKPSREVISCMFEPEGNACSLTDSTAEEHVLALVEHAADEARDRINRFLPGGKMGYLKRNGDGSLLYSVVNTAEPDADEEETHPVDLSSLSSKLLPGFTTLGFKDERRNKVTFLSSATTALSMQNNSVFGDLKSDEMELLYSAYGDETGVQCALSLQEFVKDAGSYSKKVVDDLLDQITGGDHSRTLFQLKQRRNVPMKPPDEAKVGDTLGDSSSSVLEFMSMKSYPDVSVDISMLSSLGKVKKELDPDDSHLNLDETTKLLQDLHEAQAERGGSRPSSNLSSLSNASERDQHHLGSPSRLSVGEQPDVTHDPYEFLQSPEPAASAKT

[6] = biological target: CBP bromodomain (Homo sapiens, UniProt Q92793); test: biochemical; conditions: read-out: DTm
CBP bromodomain, sequence (Q92793 1085-1192 limits assumed): as the sequence (Q92793 1085-1192 limits assumed) above

IC50 [3] [nM] | IC50 (μM), CBP BRET (EC50, NanoBRET) [4] [µM] | EC50 [5] [nM] | ΔTm at 20 µM [6] [°C] | SMILES | GI50 [1] [nM] | changes in the global levels of H3K18 or H3K27 acetylation [2]
– | – | – | – | COc1ccc(CCc2nc3cc(-c4c(C)noc4C)ccc3n2C[C@H](C)N2CCOCC2)cc1Cl [SGC-CBP30] | 3860 | did not observe any significant changes
190 ± 20 | 0.25 ± 0.03 | 1700 ± 340 | 4.52 | CCC(=O)N1CCOc2c(cc(-c3ccc(OC)c(OC)c3)cc2OC[C@H]2CCCN(C)C2)C1 [I-CBP112] | – | –
